{
  "source": "patent US8440199B2",
  "about": "“Methods for mobilizing mesenchymal stem cells in a patient” (Imperial Innovations Limited, priority 2007, dated 2013)",
  "key": {"[1]": {"system": "CXCR4", "assay": "Flow cytometry of CXCR4 expression on bone marrow HPCs and EPCs", "assay_type": "in vivo, mice", "conditions": "treated 4 days", "protocol": "(§1) Bone marrow was aspirated on day 5 and harvested cells were used to determine a, SDF-1α levels in bone marrow supernatant as determined by ELISA; b, % of bone marrow Lin^− Sca-1^+ cells expressing CXCR4; and c, % of bone marrow CD34^+ VEGFR2^+ cells expressing CXCR4. Harvested cells were also utilized in the following chemotaxis assays: d, number of HPCs; and e, EPCs undergoing chemotaxis towards 30 nM SDF-1α. Cells taken from bone marrow of mice treated with G-CSF (closed bars) or vehicle (PBS, open bars). f, number of HPCs; and g, EPCs undergoing chemotaxis towards 30 nM SDF-1α.\n(§2) For flow cytometric analysis, cells were re-suspended in FACS buffer. To identify neutrophils in the bone marrow, surface expression of the granulocyte marker Ly-6G/Ly6C (Gr-1) was determined. Neutrophils were identified as Gr-1^high positive cells with a characteristic high side scatter profile. HPCs residing in the BM were selected as being negative for lineage (Lin^−) markers: CD3e, CD11b, CD45R, Ly-76, and Gr-1 and positive for Sca-1 (Lin^− Sca-1^+ cells) (Gerber et al., 2002; Uchida, et al., 1997). EPCs residing in the BM were selected as being positive for both CD34 and VEGFR2 (CD34^+ VEGFR2^+ cells) (Asahara et al., 1997; Yoon et al., 2005). Furthermore, neutrophils were stained for the surface expression of CXCR2, whilst Lin^− Sca-1^+ cells and CD34^+ VEGFR2^+ cells were stained for the cell surface expression of CXCR4. Samples were then washed and then quantified on a FACSAria cell sorter (BD Biosciences, Oxford, United Kingdom) and analysed using FACSDiva software."}, "[2]": {"system": "EPCs", "assay": "In situ perfusion of mouse hind limb, CFU-EPC in perfusate", "assay_type": "in vivo, mice", "conditions": "for EPC mobilization from the bone marrow: FIG. 21c"}, "[3]": {"system": "HPC colonies", "conditions": "colonies grown from bone marrow of treated mice, FIGS. 25a, 25b", "protocol": "a, number of cells per colony; and b, mean colony area; of CFU-HPC grown for […] in methocult.\n(§3) Mobilized cells were incubated for 11 days before quantification."}, "[4]": {"system": "HPCs", "conditions": "treated over 4 days, compared to controls, FIG. 22a", "protocol": "24 hours after the last injection, bone marrow was aspirated for the enumeration of a, CFU-HPC bone marrow frequency; b, CFU-EPC bone marrow frequency; and c, CFU-SPC bone marrow frequency.\nas §3"}, "[5]": {"system": "EPCs", "assay": "In vitro chemotaxis of bone marrow EPCs towards SDF-1α", "assay_type": "cell-based", "conditions": "bone marrow cells of mice treated 4 days; 30 nM SDF-1α, FIG. 23e, 23g", "protocol": "as §1"}, "[6]": {"system": "EPCs", "assay": "CFU-EPC bone marrow frequency", "assay_type": "in vivo, mice", "conditions": "treated over 4 days, compared to controls, FIG. 22b"}, "[7]": {"system": "haematopoietic progenitor cells (HPC)", "assay": "Example 1: HPC mobilisation, hind limb bone marrow perfusion and circulating blood, CFU-HPC assay", "assay_type": "in vivo, mice", "conditions": "G-CSF or VEGF 2.5 μg on 4 consecutive days, then AMD3100 (0.1 mM infusion or 5 mg/kg i.p.); perfusate and blood, FIGS. 1-4", "protocol": "Assay was performed in duplicate Mobilised cells were maintained in semi-solid methylcellulose cultures for 11 days before quantification of the number of CFU-HPCs."}, "[8]": {"system": "Lin^− Sca-1^+ HPCs", "assay": "PI staining, cell cycle status of Lin- Sca-1+ HPCs", "assay_type": "in vivo, mice", "conditions": "treated 4 days, FIG. 25c", "protocol": "as §2, with “Furthermore, neutrophils were stained for the surface expression of CXCR2, whilst Lin^− Sca-1^+ cells and CD34^+ VEGFR2^+ cells were stained for the cell surface expression of CXCR4.” left out\nLin^− Sca-1^+ cells and CD34^+ VEGFR2^+ cells were analysed to determine their cell cycling status using a propidium iodide (PI) stain. […] A dotplot of PI-Width against PI-Area was recorded. Aggregates of cells were detected as cells having a larger PI-W profile and were not included in the gate. […] To calculate the percentage of cells undergoing active cell cycling, a marker was set to exclude the G0/G1 peak and the percentage of cells in S/G2/M was calculated."}, "[9]": {"system": "SPCs", "assay": "In situ perfusion of mouse hind limb, CFU-SPC in perfusate", "assay_type": "in vivo, mice", "conditions": "for SPC mobilization from the bone marrow: FIG. 21d", "description": "a, overview of procedures set up for identifying the direct mobilization of progenitor cells from the femoral bone marrow. […] 24 hours after the last injection, mice underwent perfusion of the right hind limb. CXCR4 antagonist (AMD3100 0.1 mM, closed bars) or vehicle (PBS, open bars) were then infused directly into the femoral artery for 10 minutes. The hind limb was then perfused for a further 50 minutes to allow collection of b, CFU-HPC; c, CFU-EPC; or d, CFU-SPC; via the femoral vein. CFU-HPC, CFU-EPC, and CFU-SPC are shown as total number of colonies collected in the perfusate. n=5-8 mice per group. Data: means±s.e.m. *: P<0.05, **: P<0.01, ***: P<0.001 between selected groups.\n(§4) 24 hours after the last injection, mice were administered a CXCR4 antagonist (AMD3100, 5 mg/kg i.p), KC (30 μg/kg i.v.) or vehicle and blood was collected via cardiac puncture 60 minutes later for enumeration of circulating leukocyte, HPC, EPC, and stromal progenitor cell levels.\nOn day 5 following pre-treatment of growth factors, mice were anaesthetized and the femoral artery and vein exposed. The hind limb was isolated by occlusion of the external iliac artery, superficial epigastric and muscular branch. Polyethylene cannulae (Portex, London, UK) were immediately inserted into the femoral artery and vein as previously described (Martin et al., 2003; 2006; Wengner et al., 2008). Perfusion buffer was infused via the arterial cannula and removed from the venous cannula using a Minipuls peristaltic pump (Anachem, Luton, UK). The hind limb was perfused for an initial 2 minutes to remove remaining blood from the vasculature and then perfused for a further 60 min with vehicle alone or the CXCR4 antagonist (AMD3100, 0.1 mM), infused over the first 10 minutes using an infusion/withdrawal pump (Harvard Instruments, U.K.).\n(§5) The perfusate was centrifuged and re-suspended in DMEM+20% FBS. In some experiments citrated blood was obtained via cardiac bleed and lysed for red blood cells. Bone marrow and perfusate cytospins, and blood smears were stained using DiffQuik for the enumeration of mononuclear cells, eosinophils, and neutrophils. Bone marrow, perfusate and lysed blood were then used for assays outlined below to enumerate HPCs (CFU-HPC), EPCs (CFU-EPC), SPCs (CFU-F).\n5×10^5 cells were added to Mesencult media including supplements (Stemcell Technologies). Dishes were incubated for 7 days before media was changed, and then incubated for a further 14 days before the enumeration of SPC colonies (CFU-F).\n(§6) The total number of colony forming units mobilized was calculated according to the number of colonies per plate×by the total number of leukocytes mobilized/number of cells seeded."}, "[10]": {"system": "HPCs", "assay": "Circulating CFU-HPC in blood", "conditions": "agent alone (AMD3100 5 mg/kg i.p., blood at 60 min; G-CSF or VEGF once daily for 4 days), FIG. 20b", "description": "a, Experimental protocol. […] 24 hours after the last injection, mice were administered a CXCR4 antagonist (AMD3100 5 mg/kg i.p, closed bars) or vehicle (PBS, open bars). 60 minutes later, blood was taken for analysis of circulating: b, CFU-HPC; c, CFU-EPC; and d, CFU-SPC. CFU-HPC, CFU-EPC, and CFU-SPC are shown as number of colonies per ml blood. n=5-8 mice per group. Data: means±s.e.m. *: P<0.05, **: P<0.01, ***: P<0.001 between selected groups.\nas §4\nIn some experiments citrated blood was obtained via cardiac bleed and lysed for red blood cells. […] Bone marrow, perfusate and lysed blood were then used for assays outlined below to enumerate HPCs (CFU-HPC), EPCs (CFU-EPC), SPCs (CFU-F).\n5×10^4 cells were added to Methocult medium (Stem cell technologies) supplemented with specific cytokines and growth factors to enable formation of CFU-HPC. Mobilized cells were incubated for 11 days before quantification.\nas §6"}, "[11]": {"system": "mesenchymal stem cells (MSC)", "assay": "Example 1: MSC mobilisation, hind limb bone marrow perfusion and circulating blood, CFU-MSC assay", "assay_type": "in vivo, mice", "conditions": "perfusate and blood, FIGS. 9-12", "protocol": "4×10^5 cells were added to 3 ml Mesencult media including supplements (05501 and 05502 Stemcell Technologies). Assay was performed in duplicate."}, "[12]": {"system": "neutrophils", "conditions": "VEGF pre-treatment 4 days, KC 30 μg/kg i.v., 60 minutes, FIG. 24c", "description": "24 hours later these mice underwent perfusion of the right hind limb. CXCR4 antagonist (AMD3100 0.1 mM, closed bars) or vehicle (PBS, open bars) were then infused directly into the femoral artery for 10 minutes. The hind limb was then perfused for a further 50 minutes to allow collection of a, neutrophils via the femoral vein. […] The hind limb was again perfused for a further 50 minutes to allow b, collection of neutrophils. […] Data: mean±s.e.m. *: P<0.05, ***: P<0.001 between selected groups.\nFemale BALB/c mice were purchased from Harlan (Oxford, United Kingdom). […] 24 hours after the last injection, mice were administered a CXCR4 antagonist (AMD3100, 5 mg/kg i.p), KC (30 μg/kg i.v.) or vehicle and blood was collected via cardiac puncture 60 minutes later for enumeration of circulating leukocyte, HPC, EPC, and stromal progenitor cell levels.\nas §5"}, "[13]": {"system": "neutrophils", "conditions": "VEGF-treated mice, KC 30 nM, FIG. 24e", "protocol": "Bone marrow-derived neutrophils were tested for migration towards KC (30 nM) using 3 μm pore sized transwell chemotaxis plates as previously described (Wengner et al., 2008). To measure HPC and EPC migration towards SDF-1α, murine bone marrow cells (2×10^6 cells) were placed in the upper chamber of transwell inserts (5 μm pore size Corning). These in turn were placed in individual wells of a 24 well cell culture plate with 30 nM SDF-1α added. Chambers were incubated for 4 hours at 37° C. and migrated cells were then placed in methocult or EPC colony media as described above for the enumeration of CFU-HPC and CFU-EPC respectively."}, "[14]": {"system": "endothelial progenitor cells (EPC)", "assay": "Example 1: EPC mobilisation, hind limb bone marrow perfusion and circulating blood, CFU-EPC assay", "conditions": "G-CSF or VEGF 2.5 μg on 4 consecutive days, then AMD3100; perfusate and blood, FIGS. 5-8", "description": "24 hours after the last injection, mice were administered a CXCR4 antagonist (AMD3100, 5 mg/kg i.p), or vehicle and blood was collected via cardiac puncture 1 hour later for enumeration of circulating leukocyte, HPC, EPC and MSC levels.\nOn day 5, mice were anaesthetized with urethane (25% 0.2 ml i.p.) and the femoral artery and vein exposed. The hind limb was isolated by occlusion of the external iliac artery, superficial epigastric and muscular branch with 5/0 braided silk suture. Polyethylene cannulae (0.61 mm OD, Portex, London, UK) were immediately inserted into the femoral artery and vein and tied in place with 5/0 braided silk suture. Perfusion buffer (modified Krebs-Ringer bicarbonate buffer) at 37° C. was infused (0.15 ml/min) via the arterial cannula and removed from the venous cannula using a Minipuls peristaltic pump (Anachem, Luton, UK). The hind limb was perfused for an initial 10 minutes to remove remaining blood from the vasculature and then perfused for a further 60 min with vehicle alone or AMD3100, a CXCR4 antagonist (0.1 mM, Sigma UK) infused over the first 10 minutes using an infusion/withdrawal pump (Harvard Instruments, U.K.).\nThe perfusate was collected and centrifuged and the cell pellet re-suspended in Dulbecco's modified eagles medium (DMEM) with 20% fetal bovine serum (FBS). A total cell count was performed before the perfusate was lysed for red blood cells, re-suspended again in DMEM (20% FBS) and used for assays outlined below to enumerate haematopoietic progenitor cells (CFU-HPC), endothelial progenitor cells (CFU-EPC), and leukocyte populations.\nIn some experiments blood was taken to enumerate HPCs, EPCs and leukocytes. A total cell count was performed on citrated blood before being lysed for red blood cells and re-suspended in DMEM (20% FBS).\nAssay was performed in duplicate. Dishes were incubated for 7 days before media was changed, and then incubated for a further 14 days before the enumeration of late outgrowth endothelial progenitor cells. Early outgrowth endothelial progenitor cells were enumerated on day 5.\nIn each of the above assays, the total number of colony forming units mobilised is calculated according to the number of colonies per plate×by the total number of leukocytes mobilized/number of cells seeded.\nMice were anaesthetised and the femoral artery and vein was cannulated such that the femoral bone marrow could be perfused (Martin et al, (2006) Br. J. Haem. 134: 326-329). […]\nMice were injected i.p. with the CXCR4 antagonist, AMD3100, (or vehicle control) and 1 h later the mice were killed. Blood was collected by cardiac puncture and stem cell numbers in the blood were determined. […]"}, "[15]": {"conditions": "agent alone (CXCR4 antagonist 0.1 mM infused 10 min; G-CSF or VEGF pre-treatment 4 days)"}, "[16]": {"conditions": "growth factor pre-treatment 4 days, then CXCR4 antagonist infused"}},
  "data": [
    {"substance": "VEGF", "values": [
      {"measurement": "CXCR4 expression on EPCs", "setting": "[1]; CD34+ VEGFR2+ bone marrow cells, FIG. 23c", "result": "did not alter the expression of CXCR4 on either HPCs or EPCs"},
      {"measurement": "CXCR4 expression on HPCs", "setting": "[1]; Lin- Sca-1+ bone marrow cells, FIG. 23b", "result": "did not alter the expression of CXCR4 on either HPCs or EPCs"},
      {"measurement": "EPC mobilization from the bone marrow", "setting": "[2]; [15]", "result": "significant EPC mobilization"},
      {"measurement": "EPC mobilization, acute administration", "setting": "[2]; growth factor (50 nM) infused into femoral artery for 10 minutes, alone, FIG. 31b", "result": "mobilized both HPCs and EPCs"},
      {"measurement": "EPC mobilization from the bone marrow", "setting": "[2]; [16]", "result": "an additive effect was observed for EPC mobilization"},
      {"measurement": "cellular content and size of HPC colonies", "setting": "[3]", "result": "significant increase in both their cellular content and size"},
      {"measurement": "frequency of HPCs in the bone marrow", "setting": "[4]", "result": "no difference was observed"},
      {"measurement": "EPC chemotaxis towards SDF-1α", "setting": "[5]", "result": "had no effect on EPC migration"},
      {"measurement": "frequency/number of EPCs in the bone marrow", "setting": "[6]", "result": "no difference was observed"},
      {"measurement": "HPC mobilization", "setting": "[7]", "result": "inhibits the capacity for AMD3100 to mobilize HPCs"},
      {"measurement": "percentage of Lin- Sca-1+ HPCs in S/G2/M phase of the cell-cycle", "setting": "[8]", "result": "significant increase in the percentage of BM-HPCs"},
      {"measurement": "SPC mobilization from the bone marrow", "setting": "[9]; [15]", "result": "HPCs and SPCs were not mobilized"},
      {"measurement": "SPC mobilization, acute administration", "setting": "[9]; growth factor (50 nM) infused acutely, alone or in combination with CXCR4 antagonist, FIG. 31c", "result": "neither growth factor, when administered acutely or in combination with the CXCR4 antagonist led to mobilization of SPCs"},
      {"measurement": "SPC mobilization from the bone marrow", "setting": "[9]; [16]", "result": "SPCs were mobilized"},
      {"measurement": "circulating numbers of HPCs", "setting": "[10]", "result": "did not increase circulating numbers of HPCs"},
      {"measurement": "MSC mobilization", "setting": "[11]; G-CSF or VEGF 2.5 μg on 4 consecutive days, then AMD3100", "result": "mobilizes MSC into the blood"},
      {"measurement": "MSC mobilization", "setting": "[11]; agent alone", "result": "does not mobilize MSCs"},
      {"measurement": "KC-induced mobilization of neutrophils in vivo", "setting": "[12]", "result": "completely abrogated"},
      {"measurement": "ability of bone marrow neutrophils to migrate towards KC in vitro", "setting": "[13]", "result": "did not affect"},
      {"measurement": "EPC mobilization", "setting": "[14]", "result": "additive effect of AMD3100 and VEGF with respect to EPC mobilization"}
    ]}
  ]
}
